From US10555987B2, “GHRH agonists for the treatment of ischemic disorders” (UNIVERSITY OF MIAMI, priority 2012, dated 2020)
Non-standard residues stand in square brackets, D forms with d. Residues, ends and D or L forms follow the SMILES beside them. *: point of attachment. Phe(F5) = N[C@@H](Cc1c(F)c(F)c(F)c(F)c1F)C(=O)O; Desaminotyrosyl = O=C(CCc1ccc(O)cc1)*; NMeY = CN[C@@H](Cc1ccc(O)cc1)C(=O)O; Agmatine = N=C(N)NCCCCN*; Nle = CCCC[C@H](N)C(=O)O; Orn = NCCC[C@H](N)C(=O)O; Abu = CC[C@H](N)C(=O)O; GABA = NCCCC(=O)O

Tests used:
[1] = tested on: superfused rat pituitary cells; assay: GH release in superfused rat pituitary cell system (Table 4); type: cell-based; conditions: 1 nM; for GH Response (ng/ml), column 1: replicate 1; for GH Response (ng/ml), column 2: replicate 2
Procedure: Growth hormone releasing activity. Growth hormone releasing was assayed by using a superfused rat pituitary cell system as described in S. Vigh and A. V. Schally, Peptides 5, Suppl: 241-347, 1984. The new synthetic peptide analog of hGHRH P20356 and JI-38 (as control) were administered for 3 minutes (1 mL perfusate) at 1 nM concentration as shown below. Fractions of 1 ml are collected and the GH content in each was determined by ELISA.
Pituitary cells from 2 male rats were used for each channel of the superfusion system. The cells were exposed to 3-min pulses of the new GHRH agonists or to JI-38 as standard every 30 min. Outflowing samples of each channel (1 ml) were collected every 3 min, and GH levels were determined by ELISA.

[2] = molecular target: T1, GHRH receptor (Homo sapiens, UniProt Q02643); assay: GHRH receptor binding, competition with 125I-labeled JV-1-42, human pituitary membrane homogenates (Table 5); set-up: Normal human pituitaries were purchased from the National Hormone and Peptide Program; tissue National Hormone and Peptide Program (A.F. Parlow, Harbor-UCLA Medical Center, Torrance, Calif.); host or cells: normal human pituitary, membrane fraction; conditions: for Relative affinity (Binding potency) vs GHRH: GHRH(1-29) = 1, Table 5; for Relative affinity (Binding potency) vs JI-38: JI-38 = 1, Table 5
T1 sequence (Q02643 23-423): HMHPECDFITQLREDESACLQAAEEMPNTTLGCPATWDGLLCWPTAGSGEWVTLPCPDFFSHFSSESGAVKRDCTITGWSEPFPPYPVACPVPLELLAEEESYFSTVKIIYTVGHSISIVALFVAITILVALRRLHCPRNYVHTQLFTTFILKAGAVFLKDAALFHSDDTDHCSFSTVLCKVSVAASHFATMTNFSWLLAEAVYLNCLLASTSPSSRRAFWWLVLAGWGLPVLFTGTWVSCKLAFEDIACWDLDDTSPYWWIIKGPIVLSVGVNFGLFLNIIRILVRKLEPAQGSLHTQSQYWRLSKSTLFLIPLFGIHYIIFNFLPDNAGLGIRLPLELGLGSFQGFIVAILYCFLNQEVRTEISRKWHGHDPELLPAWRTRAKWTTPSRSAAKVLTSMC
Procedure: Normal human pituitaries were purchased from the National Hormone and Peptide Program (A.F. Parlow, Los Angeles, County Harbor-UCLA Medical Center, Torrance, Calif.). Briefly, in competitive binding analysis, ^125I-labeled JV-1-42 ([…]) was displaced by GHRH agonists at 10^−6 to 10^−12 M.
The final binding affinities were expressed as IC50 values and were calculated by using the LIGAND PC computerized curve-fitting program of Munson and Rodbard as modified by McPherson.

[3] = tested on: GH release; assay: GH releasing potency in vivo, intravenous administration (Example 14, Table 13); set-up: species or system rat; conditions: i.v.; for Relative potency, 5 min / Relative potency, 15 min: JI-38 = 1; for Serum GH level at selected time after injection (ng/ml), 0 min / Serum GH level at selected time after injection (ng/ml), 5 min / Serum GH level at selected time after injection (ng/ml), 15 min: dose 1 μg/kg, mean ± SEM
Procedure: Male Sprague-Dawley rats, weighing 200-250 g, were purchased from Charles River Laboratory (Wilmington, Mass.) and used for experiments. All animal procedures were approved by the Veterans Affairs Animal Care and Use Committee and were conducted in accordance with additional institutional guidelines as well. Briefly, groups of 5-6 animals were used in each experiment. The rats were anesthetized with 50 mg/kg of sodium pentobarbital (Nembutal, Lundbeck Inc., Deerfield, Ill.). Twenty min after inducing anesthesia, GHRH(1-29)NH2, JI-38, or new analogs were injected into the animals intravenously (i.v.) or subcutaneously (s.c.). The peptides were dissolved in 0.01 M acetic acid to get 1 μg/μl stock solution, and then diluted with 5% mannitol. Control rats received 5% mannitol only. Blood samples were collected from the jugular vein at selected times and were used for serum preparation. Concentrations of GH in rat sera were determined by ELISA. The relative potencies of tested peptides were calculated using GHRH(1-29)NH2 and JI-38 for comparison, whose potency was defined as 1. The equivalent dosage of GHRH(1-29)NH2 to reach the same level of serum growth hormone release after injection of the specific tested peptide was determined from a GHRH(1-29)NH2 standard curve using Origin 6.0 software. […] Serum GH was determined using the rat Growth Hormone ELISA kit (ALPCO Diagnostics, Mill Valley, Calif.) according to the manufacturer's instruction. Absorbance at 405 nm was measured by a Victor 3 Multi-label Counter (Perkin-Elmer, Waltham, Md.).

[4] = tested on: GH release; assay: In vivo endocrine activity, GH release after intravenous administration (Table 8); conditions: rat; for Stimulation of growth hormone levels after intravenous administration (in words): i.v.; for GH releasing potency in vivo relative to JI-38 (=1): i.v. injection
[5] = fraction 1 (P-20356)/21 (JI-38)
[6] = fraction 2 (P-20356)/22 (JI-38)
[7] = fraction 3 (P-20356)/23 (JI-38)
[8] = fraction 4 (P-20356)/24 (JI-38)
[9] = fraction 5 (P-20356)/25 (JI-38)

Structure (SMILES): CCCC[C@H](NC(=O)[C@@H](NC(=O)[C@H](CC(=O)O)NC(=O)[C@H](CCC(N)=O)NC(=O)[C@H](CC(C)C)NC(=O)[C@H](CC(C)C)NC(=O)[C@H](CCCN)NC(=O)[C@H](CCCNC(=N)N)NC(=O)[C@H](C)NC(=O)[C@H](CO)NC(=O)[C@H](CC(C)C)NC(=O)[C@H](CCC(N)=O)NC(=O)[C@H](CC)NC(=O)[C@H](CC(C)C)NC(=O)[C@@H](NC(=O)[C@H](CCCN)NC(=O)[C@H](CCCNC(=N)N)NC(=O)[C@H](Cc1ccc(O)cc1)NC(=O)[C@H](CO)NC(=O)[C@H](CCC(N)=O)NC(=O)[C@@H](NC(=O)[C@H](Cc1ccccc1)NC(=O)[C@@H](NC(=O)[C@H](C)NC(=O)[C@H](CC(=O)O)NC(=O)[C@H](C)NC(=O)CCc1ccc(O)cc1)[C@@H](C)CC)[C@@H](C)O)C(C)C)[C@@H](C)CC)C(=O)N[C@@H](CC(=O)O)C(=O)NCCCCNC(=N)N [JI-38, [Dat^1, Gln^8, Orn^12,21, Abu^15, Nle^27, Asp^28, Agm^29]hGHRH(1-29)NH2, reference compound] (Desaminotyrosyl-ADAIFTQSYR[Orn]VL[Abu]QLSAR[Orn]LLQDI[Nle]D-Agmatine)
- GH Response (ng/ml), Average [1, 5]: 49.27 ng/mL
- GH Response (ng/ml), column 1 [1, 5]: 42.46 ng/mL
- GH Response (ng/ml), column 2 [1, 5]: 56.07 ng/mL
- GH Response (ng/ml), Average [1, 6]: 131.71 ng/mL
- GH Response (ng/ml), column 1 [1, 6]: 143.58 ng/mL
- GH Response (ng/ml), column 2 [1, 6]: 119.83 ng/mL
- GH Response (ng/ml), Average [1, 7]: 194.68 ng/mL
- GH Response (ng/ml), column 1 [1, 7]: 222.13 ng/mL
- GH Response (ng/ml), column 2 [1, 7]: 167.23 ng/mL
- GH Response (ng/ml), Average [1, 8]: 137.45 ng/mL
- GH Response (ng/ml), column 1 [1, 8]: 142.96 ng/mL
- GH Response (ng/ml), column 2 [1, 8]: 131.93 ng/mL
- GH Response (ng/ml), Average [1, 9]: 96.70 ng/mL
- GH Response (ng/ml), column 1 [1, 9]: 96.34 ng/mL
- GH Response (ng/ml), column 2 [1, 9]: 97.05 ng/mL
- IC50 ([2]; 125I-JV-1-42, human pituitary membranes, Table 5): 1.71 nM
- Relative affinity (Binding potency) vs GHRH [2]: 2.4
- Relative affinity (Binding potency) vs JI-38 [2]: 1
- Relative potency, 5 min [3]: 1
- Relative potency, 15 min [3]: 1
- Serum GH level at selected time after injection (ng/ml), 0 min [3]: 48.0 ± 10.4 ng/mL
- Serum GH level at selected time after injection (ng/ml), 5 min [3]: 538 ± 58.3 ng/mL
- Serum GH level at selected time after injection (ng/ml), 15 min [3]: 198 ± 18.1 ng/mL

Structure (SMILES): CCCC[C@H](NC(=O)[C@@H](NC(=O)[C@H](CC(=O)O)NC(=O)[C@H](CCC(N)=O)NC(=O)[C@H](CC(C)C)NC(=O)[C@H](CC(C)C)NC(=O)[C@H](CCCN)NC(=O)[C@H](CCCNC(=N)N)NC(=O)[C@H](C)NC(=O)[C@H](CO)NC(=O)[C@H](CC(C)C)NC(=O)[C@H](CCC(N)=O)NC(=O)[C@H](CC)NC(=O)[C@H](CC(C)C)NC(=O)[C@@H](NC(=O)[C@H](CCCN)NC(=O)[C@H](CCCNC(=N)N)NC(=O)[C@H](Cc1ccc(O)cc1)NC(=O)[C@H](CO)NC(=O)[C@H](CC(N)=O)NC(=O)[C@@H](NC(=O)[C@H](Cc1c(F)c(F)c(F)c(F)c1F)NC(=O)[C@@H](NC(=O)[C@H](C)NC(=O)[C@H](CC(=O)O)NC(=O)[C@@H](C)NC(=O)CCc1ccc(O)cc1)[C@@H](C)CC)[C@@H](C)O)C(C)C)[C@@H](C)CC)C(=O)N[C@@H](CO)C(=O)N[C@@H](CCCNC(=N)N)C(=O)NCCCC(N)=O [Peptide P-25502, [Dat^1, D-Ala^2, Fpa5^6, Orn^12, Abu^15, Orn^21, Nle^27, Gab^30]hGHRH(1-30)NH2] (Desaminotyrosyl-[dA]DAI[Phe(F5)]TNSYR[Orn]VL[Abu]QLSAR[Orn]LLQDI[Nle]SR[GABA]-NH2)
- Stimulation of growth hormone levels after intravenous administration (in words) [4]: most potent
- GH releasing potency in vivo relative to JI-38 (=1) ([4]; 5 min after): 6.76
- GH releasing potency in vivo relative to JI-38 (=1) ([4]; 15 min after): 5.40
- GH releasing potency in vivo relative to JI-38 (=1) ([4]; 30 min after): 5.83
- Relative affinity (Binding potency) vs GHRH [2]: 58.0
- Relative affinity (Binding potency) vs JI-38 [2]: 24.4
- GH-releasing potency after intravenous administration (in words) [3]: highest potency for GH release
- Serum GH level at selected time after injection (ng/ml), 0 min [3]: 59.9 ± 15.9 ng/mL
- Serum GH level at selected time after injection (ng/ml), 5 min [3]: 1253 ± 185 ng/mL
- Serum GH level at selected time after injection (ng/ml), 15 min [3]: 575 ± 20.9 ng/mL

Structure (SMILES): CCCC[C@H](NC(=O)[C@@H](NC(=O)[C@H](CC(=O)O)NC(=O)[C@H](CCC(N)=O)NC(=O)[C@H](CC(C)C)NC(=O)[C@H](CC(C)C)NC(=O)[C@H](CCCN)NC(=O)[C@H](CCCNC(=N)N)NC(=O)[C@H](C)NC(=O)[C@H](CO)NC(=O)[C@H](CC(C)C)NC(=O)[C@H](CCC(N)=O)NC(=O)[C@H](CC)NC(=O)[C@H](CC(C)C)NC(=O)[C@@H](NC(=O)[C@H](CCCN)NC(=O)[C@H](CCCNC(=N)N)NC(=O)[C@H](Cc1ccc(O)cc1)NC(=O)[C@H](CO)NC(=O)[C@H](CCC(N)=O)NC(=O)[C@@H](NC(=O)[C@H](Cc1ccccc1)NC(=O)[C@@H](NC(=O)[C@H](C)NC(=O)[C@H](CC(=O)O)NC(=O)[C@@H](C)NC(=O)[C@H](Cc1ccc(O)cc1)NC)[C@@H](C)CC)[C@@H](C)O)C(C)C)[C@@H](C)CC)C(=O)N[C@@H](CC(=O)O)C(=O)N[C@@H](CCCNC(=N)N)C(=O)NC [Peptide P-27403, [N—Me-Tyr^1, D-Ala^2, Gln^8, Orn^12, Abu^15, Orn^21, Nle^27, Asp^28]hGHRH(1-29)NH—CH3] (H-[NMeY][dA]DAIFTQSYR[Orn]VL[Abu]QLSAR[Orn]LLQDI[Nle]DR-NHMe)
- Stimulation of growth hormone levels after intravenous administration (in words) [4]: most potent
- GH releasing potency in vivo relative to JI-38 (=1) ([4]; 15 min after): 5.01
- GH releasing potency in vivo relative to JI-38 (=1) ([4]; 30 min after): 4.01
- Relative potency, 5 min [3]: 1.19
- Relative potency, 15 min [3]: 1.35
- Serum GH level at selected time after injection (ng/ml), 0 min [3]: 47.7 ± 4.1 ng/mL
- Serum GH level at selected time after injection (ng/ml), 5 min [3]: 642 ± 29.7 ng/mL
- Serum GH level at selected time after injection (ng/ml), 15 min [3]: 268 ± 21.1 ng/mL
